{
  "source": "patent US9669051B2",
  "about": "“Dietary fiber compositions with metformin, sitagliptin, or a combination thereof for the treatment of metabolic disease” (Inovobiologic Inc., priority 2012, dated 2017)",
  "key": {"[1]": {"settings": "in words; cited from earlier work"}, "[2]": {"system": "Zucker FA/FA Rat Model", "experiment": "Example 7: hemoglobin glycosylation (HbA1c)", "assay_type": "in vivo", "quoted_text": "The extent of hemoglobin glycosylation was determined using a clinical analyzer (e.g., Bayer DCA2000). Blood samples for analysis were collected via tail nick."}, "[3]": {"system": "Zucker FA/FA Rat Model", "experiment": "Example 7: fasted oral glucose tolerance test (OGTT), glucose and serum insulin", "assay_type": "in vivo", "settings": "week 6, 16 h fasted", "excerpt": "The remainder of the sample was allowed to clot, and centrifuged to separate serum. Serum samples were frozen for insulin analysis."}, "[4]": {"system": "Zucker FA/FA Rat Model", "experiment": "Example 7: necropsy histopathology of liver, kidney and pancreas", "assay_type": "in vivo", "settings": "week 7 necropsy", "experimental": "Rats were fasted overnight and given their regular sitagliptin treatment in the morning. Following the in-life procedures, rats were anesthetized with isoflurane, and a blood sample was collected via cardiac puncture. No peptidase inhibitors were used. Following sample collection, a limited necropsy was performed. A section of ileum (approximately one inch, collected one inch rostral to the cecum) was rinsed in chilled saline and flash frozen; this sample was analyzed for DPPIV mRNA. One kidney was flash-frozen for DPPIV mRNA analysis; one liver lobe was flash frozen for DPPIV activity and mRNA analysis. The pancreas (collected as a pancreatic pluck, with associated tissue including the remainder of the intestine), one liver lobe and one kidney were post-fixed for staining with hematoxylin and eosin. One liver lobe was snap-frozen for staining with Sudan Black. The tissue samples were forwarded to Histo-Scientific Research Laboratories Inc. (Mount Jackson, Va.) for histological processing and for pathological evaluation by a board-certified pathologist. The pathology analysis was based on the gross and microscopic evaluation of the liver (two lobes), right kidney and pancreas from 39 male rats."}, "[5]": {"system": "Zucker FA/FA Rat Model", "experiment": "Example 7: body weight and food consumption", "assay_type": "in vivo", "experimental": "44 young adult (9 week old) male rats (Zucker ZDF/Crl-Lepr^fa/fa), were obtained from Charles River Laboratories, Kingston, N.Y. […] The rats were housed in cages which conformed to size standards in Guide for the Care and Use of Laboratory Animals (Nat'l Res. Council, 1996). Bedding was changed at least twice per week. The animals were maintained at a temperature range of 18-22° C., humidity 44-68%, and a photoperiod of 12 hour light/dark cycle. The rats were acclimated for 4 days prior to the start of the study. Each animal was given a sequential number and was uniquely identified with a stainless steel ear tag or other appropriate, permanent method. Morbidity and mortality checks were carried out twice daily during the study. The animals were randomly assigned to one of four groups: (1) Control 5% cellulose fiber/chow [C]; (2) 5% PGX/chow [PGX]; […] Filtered tap water was available ad libitum. The test diets were nearly isoenergetic (PGX diet provided 3.98 kcal/g and cellulose diet provided 3.90 kcal/g). […] Sitagliptin was administered in the morning, with samples and data collected after treatment."}, "[6]": {"system": "Zucker FA/FA Rat Model", "experiment": "Example 7: clinical chemistry of terminal blood sample", "assay_type": "in vivo", "experimental": "(§1) A blood sample was collected via retroorbital bleed (under isoflurane anesthesia) during the takedown phase. A portion of this sample was tested for lipid concentrations (total, LDL, and HDL cholesterol and triglycerides) using an analyzer (e.g., Polymer Technology Systems CardioChek PA). Plasma was separated by centrifugation and flash-frozen for DPPIV activity determination. The remainder was prepared for comprehensive clinical chemistry analysis."}, "[7]": {"system": "Zucker FA/FA Rat Model", "experiment": "Example 7: lipid determinations", "assay_type": "in vivo", "settings": "finding in words, with reference to the cellulose control; listed as JANUVIA alone", "experimental": "as §1"}, "[8]": {"system": "Zucker FA/FA Rat Model", "experiment": "Example 7: non-fasted and 16 h fasted blood glucose", "assay_type": "in vivo", "quoted_text": "Glucose concentrations were determined using a hand-held glucose meter (e.g., Bayer Asencia Elite). Blood was collected via tail nick following sitagliptin administration; one sample was collected when food was available for the previous 24 hours (non-fasted), and one sample was collected on another day when food was not available overnight (16 h fasted)."}, "[9]": {"system": "Zucker FA/FA Rat Model", "experiment": "Example 7: body composition by dual-energy X-ray absorptiometry (DEXA)", "assay_type": "in vivo", "experimental": "Body composition was measured using dual-energy X-ray absorptiometry (DEXA) of the carcasses at the end of the study (i.e., after a limited necropsy for histopathology samples). The primary endpoints were fat mass, lean mass and bone mineral density. Tissue composition (i.e., % body fat) and fat free mass were also reported, but the information on these measurements was redundant with other measures."}, "[10]": {"settings": "finding in words, with reference to the cellulose control"}, "[11]": {"settings": "finding in words, with reference to the cellulose control, listed as JANUVIA alone"}},
  "data": [
    {"molecule": "N[C@@H](CC(=O)N1CCn2c(nnc2C(F)(F)F)C1)Cc1cc(F)c(F)cc1F", "note": "[Sitagliptin phosphate monohydrate, 7-[(3R)-3-amino-1-oxo-4-(2,4,5-trifluorophenyl)buty]-5,6,7,8-tetrahydro-3-(trifluoromethyl)-1,2,4-triazolo[4,3-a]pyrazine phosphate (1:1) monohydrate]", "values": [
      {"measurement": "Solubility in water", "setting": "[1]", "value": "soluble in water"}
    ]},
    {"molecule": "N[C@@H](CC(=O)N1CCn2c(nnc2C(F)(F)F)C1)Cc1cc(F)c(F)cc1F", "note": "[Cellulose-JANUVIA, (R)-4-oxo-4-[3-(trifluoromethyl)-5,6-dihydro[1,2,4]triazolo[4,3-a]pyrazin-7(8H)-yl]-1-(2,4,5-trifluorophenyl)butan-2-amine]", "values": [
      {"measurement": "Hemoglobin glycosylation", "setting": "[2]; Baseline", "value": "4.4 ± 0.1", "unit": "%"},
      {"measurement": "Hemoglobin glycosylation", "setting": "[2]; Week 6", "value": "6.8 ± 0.4", "unit": "%"},
      {"measurement": "OGTT serum insulin Baseline", "setting": "[3]; before glucose", "value": "6.6 ± 1.1", "unit": "ng/mL"},
      {"measurement": "OGTT blood glucose Baseline", "setting": "[3]; before glucose 1 g/kg PO", "value": "331 ± 16.4", "unit": "mg/dL"},
      {"measurement": "OGTT serum insulin AUC(0-120), baseline-subt", "setting": "[3]; glucose 1 g/kg PO", "value": "-3.0 ± 22.7", "unit": "ng·h/dL"},
      {"measurement": "Kidney: degeneration/regeneration, tubules, group incidence", "setting": "[4]; animals affected/examined", "value": "9/9"},
      {"measurement": "Kidney: dilatation, tubules, group incidence", "setting": "[4]; animals affected/examined", "value": "9/9"},
      {"measurement": "Kidney: dilation, renal pelvis, group incidence", "setting": "[4]; animals affected/examined", "value": "9/9"},
      {"measurement": "Kidney: inflammation, renal pelvis, group incidence", "setting": "[4]; animals affected/examined", "value": "2/9"},
      {"measurement": "Kidney: mesangial expansion, group incidence", "setting": "[4]; animals affected/examined", "value": "9/9"},
      {"measurement": "Kidney: mineralization, renal pelvis, group incidence", "setting": "[4]; animals affected/examined", "value": "2/9"},
      {"measurement": "Liver: Sudan black positive hepatocytes, group incidence", "setting": "[4]; animals affected/examined", "value": "9/9"},
      {"measurement": "Liver: cystic hepatocytes degeneration with fibrosis, group incidence", "setting": "[4]; animals affected/examined", "value": "1/9"},
      {"measurement": "Liver: hepatic focal infarction, group incidence", "setting": "[4]; animals affected/examined", "value": "1/9"},
      {"measurement": "Liver: vacuolation, hepatocytes, macrovesicular, group incidence", "setting": "[4]; animals affected/examined", "value": "7/9"},
      {"measurement": "Liver: vacuolation, hepatocytes, microvesicular, group incidence", "setting": "[4]; animals affected/examined", "value": "9/9"},
      {"measurement": "Pancreas: fibrosis, islets, group incidence", "setting": "[4]; animals affected/examined", "value": "9/9"},
      {"measurement": "Pancreas: hemorrhage/hemosiderin, islets, group incidence", "setting": "[4]; animals affected/examined", "value": "9/9"},
      {"measurement": "Pancreas: hypertrophy, islets, group incidence", "setting": "[4]; animals affected/examined", "value": "9/9"},
      {"measurement": "Pancreas: islet cell degeneration, group incidence", "setting": "[4]; animals affected/examined", "value": "9/9"},
      {"measurement": "Pancreas: mononuclear cell infiltrate, islets, group incidence", "setting": "[4]; animals affected/examined", "value": "9/9"},
      {"measurement": "Pancreas: percent of islet area containing positive insulin positive cells", "setting": "[4]; group average", "value": 40, "unit": "%"},
      {"measurement": "Liver: Sudan black positive hepatocytes, group average score", "setting": "[4]; score 0-5", "value": 2.8},
      {"measurement": "Kidney: degeneration/regeneration, tubules, group average score", "setting": "[4]; severity score 0-5", "value": 2.3},
      {"measurement": "Kidney: dilatation, tubules, group average score", "setting": "[4]; severity score 0-5", "value": 2.8},
      {"measurement": "Kidney: dilation, renal pelvis, group average score", "setting": "[4]; severity score 0-5", "value": 2.3},
      {"measurement": "Kidney: inflammation, renal pelvis, group average score", "setting": "[4]; severity score 0-5", "value": 0.8},
      {"measurement": "Kidney: mesangial expansion, group average score", "setting": "[4]; severity score 0-5", "value": 2.1},
      {"measurement": "Kidney: mineralization, renal pelvis, group average score", "setting": "[4]; severity score 0-5", "value": 0.2},
      {"measurement": "Liver: cystic hepatocytes degeneration with fibrosis, group average score", "setting": "[4]; severity score 0-5", "value": 0.1},
      {"measurement": "Liver: hepatic focal infarction, group average score", "setting": "[4]; severity score 0-5", "value": 0.2},
      {"measurement": "Liver: vacuolation, hepatocytes, macrovesicular, group average score", "setting": "[4]; severity score 0-5", "value": 0.9},
      {"measurement": "Liver: vacuolation, hepatocytes, microvesicular, group average score", "setting": "[4]; severity score 0-5", "value": 2.6},
      {"measurement": "Pancreas: fibrosis, islets, group average score", "setting": "[4]; severity score 0-5", "value": 2.1},
      {"measurement": "Pancreas: hemorrhage/hemosiderin, islets, group average score", "setting": "[4]; severity score 0-5", "value": 1.1},
      {"measurement": "Pancreas: hypertrophy, islets, group average score", "setting": "[4]; severity score 0-5", "value": 3.8},
      {"measurement": "Pancreas: islet cell degeneration, group average score", "setting": "[4]; severity score 0-5", "value": 1.4},
      {"measurement": "Pancreas: mononuclear cell infiltrate, islets, group average score", "setting": "[4]; severity score 0-5", "value": 1.0},
      {"measurement": "Baseline body weight", "setting": "[5]; Baseline", "value": "297.9 ± 3.7", "unit": "g"},
      {"measurement": "Mean food consumption", "setting": "[5]; averaged for each rat over the study", "value": "22.9 ± 0.7", "unit": "g/day"},
      {"measurement": "Week 7 body weight", "setting": "[5]; week 7", "value": "411.0 ± 16.1", "unit": "g"},
      {"measurement": "Serum ALT/SGPT (terminal)", "setting": "[6]; [10]", "value": "tended to decrease ALT activity"},
      {"measurement": "Serum albumin (terminal)", "setting": "[6]; [10]", "value": "did not increase albumin concentrations"},
      {"measurement": "Serum alkaline phosphatase (terminal)", "setting": "[6]; [10]", "value": "significantly reduced alkaline phosphatase activity"},
      {"measurement": "total serum protein (terminal)", "setting": "[6]; [10]", "value": "did not increase total protein concentrations"},
      {"measurement": "blood urea nitrogen (terminal)", "setting": "[6]; [11]", "value": "tended to decrease BUN"},
      {"measurement": "Calcium", "setting": "[6]; terminal blood sample, week 7", "value": "11.2 ± 0.2", "unit": "mg/dL"},
      {"measurement": "Creatine kinase", "setting": "[6]; terminal blood sample, week 7", "value": "76.3 ± 12.8", "unit": "IU/L"},
      {"measurement": "Phosphorus", "setting": "[6]; terminal blood sample, week 7", "value": "6.0 ± 0.2", "unit": "mg/dL"},
      {"measurement": "total cholesterol (week 7)", "setting": "[7]", "value": "not effective to lower blood cholesterol"},
      {"measurement": "16 h fasted blood glucose", "setting": "[8]; Baseline", "value": "98.4 ± 5.4", "unit": "mg/dL"},
      {"measurement": "Non-fasted blood glucose", "setting": "[8]; Baseline", "value": "231.8 ± 31.2", "unit": "mg/dL"},
      {"measurement": "16 h fasted blood glucose", "setting": "[8]; Week 6", "value": "331.1 ± 16.4", "unit": "mg/dL"},
      {"measurement": "Non-fasted blood glucose", "setting": "[8]; Week 6", "value": "500.9 ± 17.4", "unit": "mg/dL"},
      {"measurement": "Fat free mass", "setting": "[9]; DEXA at end of study", "value": "133.0 ± 5.6", "unit": "g"},
      {"measurement": "Tissue composition (% fat)", "setting": "[9]; DEXA at end of study", "value": "63.3 ± 0.9", "unit": "% fat"},
      {"measurement": "Lean Mass (terminal)", "setting": "[9]; [11]", "value": "did not show an effect on lean body mass"}
    ]}
  ]
}
